Reference: patent US20190284192A1, “NITROGENOUS MACROCYCLIC COMPOUND, PREPARATION METHOD THEREFOR, PHARMACEUTICAL COMPOSITION AND APPLICATION THEREOF” (LUOXIN PHARMACEUTICAL (SHANGHAI) CO., LTD., priority 2016, published 2019)
Like-named read-outs stand apart in the source and are kept apart here.

Key:
BRD4 (BD1) = target: T1, BRD4 (BD1) (Homo sapiens, UniProt O60885); assay: BRD4 (BD1) bromodomain binding, HTRF; details: 2 h incubation at r.t.
T1 construct: Each member comprises two tandem bromodomains (BD1 and BD2) for recognizing the acetylated lysine residues

BRD4 (BD2) = target: T2, BRD4 (BD2) (Homo sapiens, UniProt O60885); assay: BRD4 (BD2) bromodomain binding, HTRF; details: 2 h incubation at r.t.
T2 construct: Each member comprises two tandem bromodomains (BD1 and BD2) for recognizing the acetylated lysine residues

MV-4-11 cells = assay: Inhibitory effect on MV-4-11 cells (CellTiter-Glo); assay type: cell-based; details: Homo sapiens, MV4-11; 72 hours, CellTiter-Glo; read-out: MV-4-11
[1] = Metabolic stability in human liver microsomes; assay type: in vitro ADME; details: human liver microsomes 0.5 mg/mL, NADPH, 37° C.; for CLint scaled at 1 µM: pH 7.4, read-out: HLM_CLint
Protocol: (§1) Determinations of the metabolic stability of the compound from the above embodiments, the detailed operation steps are as followed:
(§2) 1. Preparation of buffer C:
(§3) Buffer A: 1.0 L of 0.1 M potassium dihydrogen phosphate buffer (containing 1.0 mM EDTA);
(§4) Buffer B: 1.0 L of 0.1 M dipotassium hydrogen phosphate buffer (containing 1.0 mM EDTA);
(§5) Buffer C: 500 mL Buffer B was titrated with Buffer A to pH 7.4.
(§6) 2. 10 mM stock solution preparation:
(§7) 10 mM test compound: A certain amount of the test compound was weighed and dissolved in DMSO.
(§8) 10 mM control: 5.455 mg of ketanserin dissolved in 1 mL DMSO.
(§9) 3. Preparation of the drug solution:
(§10) 500 μM solution: 5 μL of 10 mM stock solution (see step 2) was added into 95 μL ACN;
(§11) 1.5 μM dosing solution (dissolved in liver microsome solution):
(§12) 18.75 μL of 20 mg/mL liver microsomes was added into 479.75 μL of Buffer C, then 1.5 μL of 500 μM solution was added and mixed gently by shaking.
(§13) 4. Preparation of 6 mM NADPH solution:
(§14) 15 mg NADPH was weighted, then added into 3 mL of buffer C to prepare a 6 mM NADPH solution.
(§15) 5. 30 µL of 1.5 μM dosing solution (see step 3) was added into the wells of the 96-well plate set at different time points (0 minutes, 5 minutes, 15 minutes, 30 minutes, 45 minutes), number of dulplicate sample is 2.
(§16) 6. Preparation of a 0 minutes sample: 135 μL ACN (with internal standard) was added to the 0 minutes well, followed by 15 µL of 6 mM NADPH solution.
(§17) 7. The 96-well plate containing 1.5 μM dosing solution and NADPH solution were preheated in a 37° C. water bath for 5 minutes.
(§18) 8. The 15 µL of 6 mM NADPH solution preheated was added into the wells set to 5 minutes, 15 minutes, 30 minutes, 45 minutes, then the reaction was initiated and started counting the time.
(§19) 10. The sample was vortexed for 10 min, and then centrifuged for 15 minutes on a centrifuge (Thermo Multifuge×3R) using 5594×g.
(§20) 11. 50 μL of the supernatant was taken from the centrifuged sample, transferred to a 96-well sample plate to which 100 μL of ultrapure water had already been added, mixed, and finally sent to LC-MS/MS for analysis.
(§21) Half time (T1/2)=0.693/K (K is the rate constant obtained by linear regression of the logarithm of the concentration as vertical coordinates and the culturing time as the abscissa)
(§22) 2. According to the equation formula bellow, Excel was used to plot the compound content versus reaction time, as well as half life calculation (min)
(§23) Y=(Y0−Plateau)×e^(−K*X)+Plateau
(§24) Y0 represents the compound content at 0 minutes; Y represents the compound content; X represents the time point; K represents degration rate constant of the compound; Plateau represents the lowest possible content of the compound (defined herein as 0).

[2] = Metabolic stability in mouse liver microsomes; assay type: in vitro ADME; details: mouse liver microsomes 0.5 mg/mL, NADPH, 37° C.; for CLint scaled at 1 µM: pH 7.4, read-out: MLM_CLint
Protocol: as §1, §2, §3, §4, §5, §6, §7, §8, §9, §10, §11, §12, §13, §14, §15, §16, §17, §18, §19, §20, §21, §22, §23, §24

[3] = Cassette pharmacokinetic study, intravenous or oral administration; assay type: in vivo, female Balb/c nude mice; set-up: Cmax: unit not given here; details: for F: PO 2 mg/kg vs IV 0.5 mg/kg; for Cmax / AUC(0-inf) / AUC(0-t) / MRT inf / clearance / half-life / Vd / Tmax: N = 3, cassette; for AUC(0-inf) / AUC(0-t) / MRT inf / clearance / half-life / Vd / Tmax: female, Balb/c nude, mouse, whole blood; for half-life: read-out: Terminal t1/2 (converted); for Vd: read-out: Vss
Protocol: Determinations of the pharmacokinetic parameters of ABBV-075 (standard control), 4009, 4018, 4026 and 4031 in femal Balb/c nude mice after intravenous or oral administration.
Detailed Experimental Steps:
6 female Balb/c nude mice weighing 18-20 g were divided into two groups (3/group), after fixation, the intravenous group: 0.5 mg/kg (5 mL/kg) injected by caudal vein (N=3); the oral group: 2 mg/kg (10 mL/kg) by intragastic administration (N=3). Approximately 20 μL of blood was drawn behind the eyeball at the sampling point and placed in EDTA-2K tube. The sample was immediately diluted with 40 μL of double distilled water and vortexed until well mixed. Blood samples were stored at approximately −70° C. and submitted to the BA group for analysis (LC/MS). 30 μL of blood sample was added with 200 μL of H2O and 30 μL of IS dexamethasone, 200 ng/mL), layered by LLE, and 1 mL of MTBW was added as an organic extraction solvent. The mixture was vortexed for 10 min and centrifuged at 10,000 rpm for 5 min. 850 μL of the supernatant was evaporated under nitrogen until desiccated. The desiccated extract was re-mixed with 150 μL of 50% methanol, vortexed for 2 min, and then analyzed by injecting 5 μL of the supernatant into LC-MS/MS.
2. Intravenous/oral administration formula: 5% DMSO, 95% (10% HP-3-CD in water)
3. PK calculation parameter used non-compartment model, WinNonlin 6.4 software calculation

| Structure (SMILES) | IC50 (BRD4 (BD1)) [nM] | IC50 (BRD4 (BD2)) [nM] | IC50 (MV-4-11 cells) [nM] | HLM_T1/2 [1] | CLint scaled at 1 µM [1] [mL/min/kg] | MLM_T1/2 [2] | CLint scaled at 1 µM [2] [mL/min/kg] | F [3] [%] | Cmax ([3]; PO 2 mg/kg) | AUC(0-inf) ([3]; IV 0.5 mg/kg) [ng·h/mL] | AUC(0-t) ([3]; IV 0.5 mg/kg) [ng·h/mL] | MRT inf ([3]; IV 0.5 mg/kg) [h] | clearance ([3]; IV 0.5 mg/kg) [mL/min/kg] | half-life ([3]; IV 0.5 mg/kg) [h] | Vd ([3]; IV 0.5 mg/kg) [L/kg] | AUC(0-inf) ([3]; PO 2 mg/kg) [ng·h/mL] | AUC(0-t) ([3]; PO 2 mg/kg) [ng·h/mL] | Tmax ([3]; PO 2 mg/kg) [h] | half-life ([3]; PO 2 mg/kg) [h] |
| --- | --- | --- | --- | --- | --- | --- | --- | --- | --- | --- | --- | --- | --- | --- | --- | --- | --- | --- | --- |
| CCNC(=O)C[C@@H]1N=C(c2ccc(Cl)cc2)c2ccccc2-c2cn(C)c(=O)cc21 [Compound 4016, (S)-2-(7-(4-chlorophenyl)-2-methyl-3-oxo-3,5-dihydro-2H-benzo[c]pyrido[3,4-e]azepin-5-yl)-N-ethylacetamide] | 3 | 1 | 16 | 34.22 min | 50.8 | 21.37 min | 255 |  |  |  |  |  |  |  |  |  |  |  |  |
| CCS(=O)(=O)Cc1ccc2c(c1)-c1cn(C)c(=O)cc1CN=C2c1ccc(F)cc1F [Compound 4012, 7-(2,4-difluorophenyl)-2-methyl-10-(ethylsulfonemethyl)-2H-benzo[c]pyrido[3,4-e]azepin-3(5H)-ketone] | 4 | 2 | 80 | 1473.23 min | 1.18 | 1568.22 min | 3.48 |  |  |  |  |  |  |  |  |  |  |  |  |
| Cn1cc2c(cc1=O)[C@H](CC(N)=O)N=C(c1ccc(Cl)cc1)c1ccccc1-2 [Compound 4017, (S)-2-(7-(4-chlorophenyl)-2-methyl-3-oxo-3,5-dihydro-2H-benzo[c]pyrido[3,4-e]azepin-5-yl)acetamide] | 4 | 2 | 10 | 854.27 min | 2.03 | 215.28 min | 25.4 |  |  |  |  |  |  |  |  |  |  |  |  |
| CCS(=O)(=O)Nc1ccc2c(c1)-c1cn(C)c(=O)cc1CN=C2c1ccc(F)cc1 [Compound 4018, N-(7-(4-fluorophenyl)-2-methyl-3-oxo-3,5-dihydro-2H-benzo[c]pyrido[3,4-e]azapin-10-yl)ethanesulfonamide] | 3 | 2 | 5 | 1043.26 min | 1.67 | 352.12 min | 15.5 | 12.2 | 41.9 | 201 | 199 | 0.59 | 41.8 | 0.685 | 1.51 | 98.1 | 89.7 | 0.667 | 2.18 |
| CCNC(=O)C[C@@H]1N=C(c2ccc(F)cc2)c2cc(OC)ccc2-c2cn(C)c(=O)cc21 [Compound 4023, (S)—N-ethyl-2-(7-(4-fluorophenyl)-9-methoxy-2-methyl-3-oxo-3,5-dihydro-2H-benzo[c]pyrido[3,4-e]azepin-5-yl)acetamide] | 3 | 1 | 9 | 121.24 min | 14.3 | 75.05 min | 72.7 |  |  |  |  |  |  |  |  |  |  |  |  |
| CNS(=O)(=O)Cc1ccc2c(c1)-c1cn(C)c(=O)cc1[C@H](C)N=C2c1ccc(F)cc1 [Compound 4072, (S)-1-(7-(4-flurophenyl)-2,5-dimethyl-3-oxo-3,5-dihydro-2H-benzo[c]pyrido[3,4-e]azepin-10-yl)-N-methylmethane sulfamide] | 1 | 1 | 6 | ∞ |  | 372.45 min | 14.7 |  |  |  |  |  |  |  |  |  |  |  |  |
| CC[C@@H]1N=C(c2ccc(F)cc2)c2ccc(CS(=O)(=O)CC)cc2-c2cn(C)c(=O)cc21 [Compound 4038, (S)-5-ethyl-10-((ethylsulfonyl)methyl)-7-(4-flurophenyl)-2-methyl-2,5-dihydro-3H-benzo[c]pyrido[3,4-e]azepin-3-ketone] | 2 | 1 | 4 | ∞ |  | ∞ |  |  |  |  |  |  |  |  |  |  |  |  |  |
| CCS(=O)(=O)Nc1cc2c(cc1Cl)C(c1ccc(F)cc1)=NCc1cc(=O)n(C)cc1-2 [Compound 4031, N-(9-chloro-7-(4-flurophenyl)-2-methyl-3-oxo-3,5-dihydro-2H-benzo[c]pyrido[3,4-e]azepin-10-yl)ethylsulfonamide] | 2 | 1 | 3 | ∞ |  | ∞ |  | 108 | 1009 | 771 | 729 | 3.5 | 10.9 | 2.72 | 2.34 | 3330 | 3300 | 0.5 | 3.84 |
| CCS(=O)(=O)Cc1ccc2c(c1)-c1cn(C)c(=O)cc1N(C)N=C2c1ccc(F)cc1 [Compound 4078, 10-((ethylsulfonyl)methyl)-7-(4-flurophenyl)-2,5-dimethyl-2,5-dihydro-3H-benzo[e]pyrido[4,3-c][1,2]diazepin-3-ketone] | 5 | 2 | 14 | 727.04 min | 2.39 | 195.55 min | 27.9 |  |  |  |  |  |  |  |  |  |  |  |  |
| C[C@@H]1N=C(c2ccc(F)cc2)c2ccc(CS(N)(=O)=O)cc2-c2cn(C)c(=O)cc21 [Compound 4071, (S)-(7-(4-flurophenyl)-2,5-dimethyl-3-oxo-3,5-dihydro-2H-benzo[c]pyrido[3,4-e]azepin-10-yl)methane sulfamide] | 2 | 1 | 10 | ∞ |  | ∞ |  |  |  |  |  |  |  |  |  |  |  |  |  |
| C[C@@H]1N=C(c2ccc(F)cc2)c2ccc(CS(=O)(=O)N(C)C)cc2-c2cn(C)c(=O)cc21 [Compound 4073, (S)-1-(7-(4-flurophenyl)-2,5-dimethyl-3-oxo-3,5-dihydro-2H-benzo[c]pyrido[3,4-e]azepin-10-yl)-N,N-dimethylmethane sulfamide] | 1 | 1 | 2 | 139.87 min | 12.4 | 156.12 min | 35 |  |  |  |  |  |  |  |  |  |  |  |  |
| CCS(=O)(=O)Cc1ccc2c(c1)-c1nn(C)c(=O)cc1C(C)N=C2c1ccc(F)cc1 (stereo not shown) [Compound 4081, 10-((Ethylsulfonyl)methyl)-7-(4-flurophenyl)-2,5-dimethyl-2,5-dihydro-3H-benzo[c]pyridazino[3,4-e]azepin-3-ketone] | 6 | 3 | 30 | 2952.57 min | 0.59 | ∞ |  |  |  |  |  |  |  |  |  |  |  |  |  |
